Experimental data taken from patent US10906933B2, “Coupled peptide chain for dissolving poorly soluble polypeptides and application thereof for separation and purification in liquid chromatography” (Spec-Chem Industry Inc., priority 2015, dated 2021).

Assay: Dissolving capacity evaluation of peptide chains at 2 mg/mL in solvents
Type: physicochemical
Conditions: for Dissolving capacity, ACN:H2O (1:3): 2 mg/mL in ACN:H2O (1:3) solution in HPLC; for Dissolving capacity, DMF: 2 mg/mL in DMF solution; for Dissolving capacity, DMSO: 2 mg/mL in DMSO solution
Protocol: This test evaluated the dissolving capacity of each group of peptide chain at 2 mg/mL in a DMF solution, a DMSO solution, an ACN:H2O (1:3) solution in HPLC, and an LiOH saturated solution, respectively. The poorly soluble polypeptide chain-linker arm-hydrophilic polypeptide chain in embodiments 1 and 2 were taken as Groups 1 and 2, respectively, and a separate poorly soluble polypeptide chain […] (SEQ ID NO: 1) was taken as a control group, as shown in Table 3: […]

[1] = listed as ILVLLIII (SEQ ID NO: 1) 4-HMBA-DDDDDEEKEEEE (SEQ ID NO: 2)

Row | Sequence | Dissolving capacity, ACN:H2O (1:3) | Dissolving capacity, DMF | Dissolving capacity, DMSO | Dissolving capacity, ACN:H2O (1:3) [1] | Dissolving capacity, DMF [1] | Dissolving capacity, DMSO [1] | Dissolving capacity, LiOH saturated solution (2 mg/mL in LiOH saturated solution, listed as second group)
1 | ILVLLIII (SEQ ID NO: 1) (Poorly soluble polypeptide) [Group 3, the target peptide, reference compound] | very cloudy with solids precipitating | very cloudy with solids precipitating | very cloudy with solids precipitating |  |  |  | 
2 | ILVLLIII (SEQ ID NO: 1)-HMBA-DDDDDEEKEEEE (SEQ ID NO: 2) [Group 1] |  |  |  | clear with no solids precipitating | clear with no solids precipitating | clear with no solids precipitating | 
3 | ILVLLIII (SEQ ID NO: 1)-HPA-RRRRREDKKKKK (SEQ ID NO: 3) [Group 2] | completely dissolved | solids still precipitated | solids still precipitated |  |  |  | obviously not better than that of the first group
